Test results taken from the NIST ThermoML archive (doi:10.1016/j.jct.2009.07.017).
Numbers after ± are expanded uncertainties.

What was measured:
[1] = 298.15 K; 101.33 kPa; Liquid; Vibrating tube method
[2] = refractive index (Na D-line) (dimensionless); conditions: 298.15 K; 101.33 kPa; Liquid; Standard Abbe refractometry
[3] = xn = mol fraction of the nth substance listed; conditions: 101.3 kPa, Liquid, Vibrating tube method

CCOS(=O)(=O)[O-].CC[n+]1cccc(C)c1 [1-ethyl-3-methylpyridinium ethylsulfate]
mass density [1]: 1219.61 ± 0.42 kg/m3
refractive index [2]: 1.50591 ± 0.00037

c1ccccc1 [benzene] + CCCCCCCC
mass density ([3]; 283.15 K, x2 = 0): 889.51 ± 0.1 kg/m3
mass density ([3]; 298.15 K, x2 = 0): 873.57 ± 0.1 kg/m3

c1ccccc1 [benzene] + CCCCCCCCC
mass density ([3]; 283.15 K, x2 = 0): 889.51 ± 0.1 kg/m3
mass density ([3]; 298.15 K, x2 = 0): 873.57 ± 0.1 kg/m3

CCCCCCCCC [nonane] + c1ccccc1
mass density ([3]; 283.15 K, x1 = 0.0982): 856.81 ± 0.13 kg/m3
mass density ([3]; 283.15 K, x1 = 0.1996): 829.82 ± 0.13 kg/m3
mass density ([3]; 283.15 K, x1 = 0.304): 807.64 ± 0.14 kg/m3
mass density ([3]; 283.15 K, x1 = 0.4001): 790.32 ± 0.15 kg/m3
mass density ([3]; 283.15 K, x1 = 0.497): 775.74 ± 0.17 kg/m3
mass density ([3]; 283.15 K, x1 = 0.5995): 762.31 ± 0.18 kg/m3
mass density ([3]; 283.15 K, x1 = 0.6989): 751.53 ± 0.2 kg/m3
mass density ([3]; 283.15 K, x1 = 0.7959): 741.95 ± 0.21 kg/m3
mass density ([3]; 283.15 K, x1 = 0.8928): 733.72 ± 0.23 kg/m3
mass density ([3]; 283.15 K, x1 = 1): 725.51 ± 0.24 kg/m3
mass density ([3]; 298.15 K, x1 = 0.0982): 841.94 ± 0.13 kg/m3
mass density ([3]; 298.15 K, x1 = 0.1996): 815.82 ± 0.13 kg/m3
mass density ([3]; 298.15 K, x1 = 0.304): 794.17 ± 0.14 kg/m3
mass density ([3]; 298.15 K, x1 = 0.4001): 777.31 ± 0.16 kg/m3
mass density ([3]; 298.15 K, x1 = 0.497): 763.05 ± 0.17 kg/m3
mass density ([3]; 298.15 K, x1 = 0.5995): 750.12 ± 0.18 kg/m3
mass density ([3]; 298.15 K, x1 = 0.6989): 739.44 ± 0.2 kg/m3
mass density ([3]; 298.15 K, x1 = 0.7959): 730.03 ± 0.21 kg/m3
mass density ([3]; 298.15 K, x1 = 0.8928): 721.91 ± 0.23 kg/m3
mass density ([3]; 298.15 K, x1 = 1): 713.99 ± 0.25 kg/m3

CCCCCCCC [octane] + c1ccccc1
mass density ([3]; 283.15 K, x1 = 0.1024): 855.9 ± 0.13 kg/m3
mass density ([3]; 283.15 K, x1 = 0.2013): 828.82 ± 0.13 kg/m3
mass density ([3]; 283.15 K, x1 = 0.3006): 806.11 ± 0.13 kg/m3
mass density ([3]; 283.15 K, x1 = 0.4234): 782.24 ± 0.14 kg/m3
mass density ([3]; 283.15 K, x1 = 0.5001): 769.31 ± 0.14 kg/m3
mass density ([3]; 283.15 K, x1 = 0.5985): 754.84 ± 0.15 kg/m3
mass density ([3]; 283.15 K, x1 = 0.6982): 741.81 ± 0.16 kg/m3
mass density ([3]; 283.15 K, x1 = 0.7972): 730.25 ± 0.16 kg/m3
mass density ([3]; 283.15 K, x1 = 0.9031): 719.42 ± 0.17 kg/m3
mass density ([3]; 283.15 K, x1 = 1): 710.5 ± 0.17 kg/m3
mass density ([3]; 298.15 K, x1 = 0.1024): 840.84 ± 0.13 kg/m3
mass density ([3]; 298.15 K, x1 = 0.2013): 814.43 ± 0.13 kg/m3
mass density ([3]; 298.15 K, x1 = 0.3006): 792.21 ± 0.13 kg/m3
mass density ([3]; 298.15 K, x1 = 0.4234): 768.91 ± 0.14 kg/m3
mass density ([3]; 298.15 K, x1 = 0.5001): 756.54 ± 0.15 kg/m3
mass density ([3]; 298.15 K, x1 = 0.5985): 742.05 ± 0.15 kg/m3
mass density ([3]; 298.15 K, x1 = 0.6982): 729.34 ± 0.16 kg/m3
mass density ([3]; 298.15 K, x1 = 0.7972): 718.02 ± 0.17 kg/m3
mass density ([3]; 298.15 K, x1 = 0.9031): 707.31 ± 0.17 kg/m3
mass density ([3]; 298.15 K, x1 = 1): 698.6 ± 0.18 kg/m3
